Assay results taken from patent US4900725A, “Steroids including a spiro ring in position 17, the process for their preparation and their use” (Roussel Uclaf, priority 1986, dated 1990).

Experiments:
[1] = target: T1, Progestogene receptor of rabbit uterus (Oryctolagus cuniculus, UniProt P06186); test: Progestogene receptor of rabbit uterus, relative bonding affinity (RBA); type: binding; conditions: for Relative bonding affinity (RBA), Progestogen, 2 H: incubation 2 H at 0° C.; for Relative bonding affinity (RBA), Progestogen, 2 H / Relative bonding affinity (RBA), Progestogen, 24 H: versus cold reference hormone, tritiated R; for Relative bonding affinity (RBA), Progestogen, 24 H: incubation 24 H at 0° C.
T1 construct: the uterus is removed, weighed and homogenized at 0° C; from tissue; host or cells: uterus of estradiol-treated impuberal rabbits, 105,000 g supernatant (cytosol)
T1 sequence (P06186 1-930): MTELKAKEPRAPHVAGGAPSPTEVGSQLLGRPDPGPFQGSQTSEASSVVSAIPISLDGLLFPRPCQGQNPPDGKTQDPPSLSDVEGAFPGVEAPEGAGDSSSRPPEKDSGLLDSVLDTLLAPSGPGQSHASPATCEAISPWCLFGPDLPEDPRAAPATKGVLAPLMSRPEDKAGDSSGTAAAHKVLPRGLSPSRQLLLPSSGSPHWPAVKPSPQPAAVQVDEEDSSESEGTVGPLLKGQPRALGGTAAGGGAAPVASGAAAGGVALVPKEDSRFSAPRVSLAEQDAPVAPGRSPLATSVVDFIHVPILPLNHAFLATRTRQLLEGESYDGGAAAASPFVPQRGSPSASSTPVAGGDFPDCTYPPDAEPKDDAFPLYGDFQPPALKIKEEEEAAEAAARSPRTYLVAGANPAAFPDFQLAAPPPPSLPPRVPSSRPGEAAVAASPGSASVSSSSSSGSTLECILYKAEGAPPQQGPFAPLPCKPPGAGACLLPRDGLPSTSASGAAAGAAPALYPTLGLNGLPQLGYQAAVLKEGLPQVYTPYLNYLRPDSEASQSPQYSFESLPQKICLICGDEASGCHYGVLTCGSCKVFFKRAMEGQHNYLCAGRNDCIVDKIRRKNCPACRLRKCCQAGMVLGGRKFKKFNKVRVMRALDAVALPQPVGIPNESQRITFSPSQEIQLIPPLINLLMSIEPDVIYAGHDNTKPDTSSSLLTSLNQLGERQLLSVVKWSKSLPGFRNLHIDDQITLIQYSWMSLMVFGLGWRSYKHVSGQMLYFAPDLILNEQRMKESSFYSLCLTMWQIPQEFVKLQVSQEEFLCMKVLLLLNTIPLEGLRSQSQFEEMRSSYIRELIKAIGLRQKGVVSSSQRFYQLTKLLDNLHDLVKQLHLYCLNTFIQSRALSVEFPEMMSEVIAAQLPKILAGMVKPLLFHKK
Experimental: Progestogene receptor of rabbit uterus
Impuberal rabbits weighing about 1 kg receive a cutaneous application of […] of estradiol. 5 days after this treatment, the animals are killed, the uterus is removed, weighed and homogenized at 0° C., using a Potter teflon-glass, in a buffered solution TS (tirs 10 mM, saccharose 0.25 M, HCl pH 7.4) (1 g of tissue for 50 ml of TS). The homogenate is then ultra-centrifuged (105,000 g×90 min.) at 0° C.
Aliquots of the supernatant so obtained are incubated at 0° C. for a time t, with a constant concentration (T) of tritiated product R (17,21-dimethyl-19-nor-4,9-pregnadiene-3,20-dione) in the presence of increasing concentrations (0-2500.10^-9 M either of R cold, or of cold progesterone, or of the cold product under test. The concentration (B) of bonded triated (R) is then measured in each incubate by the technique of adsorption on carbon dextran.
(§1) Calculation of the relative bonding affinity
(§2) The calculation of the relative bonding affinity (RBA) is the same for all the receptors.
(§3) The two following curves are drawn: the percentage of bonded tritiated hormone B/T as a function of the concentration of the cold reference hormone, and B/T as a function of the logarithm of the concentration of the cold product under test. The straight line of the equation [formula] is determined. B/T max=percentage of tritiated hormone bonded for an incubation of this tritiated hormone at the concentration (T). B/T min=percentage of tritiated hormone bonded for an incubation of this tritiated hormone at the concentration (T) in the presence of a great excess of cold hormone (2,500.10^-9 M).
(§4) The intersections of the straight line I50 with the curves enables the concentrations of the cold reference hormone (CH) and of the cold product under test (CX) to be evaluated which inhibit by 50% the bonding of the tritiated hormone on the receptor.
(§5) The relative bonding affinity (RBA) of the product under test is determined by the equation: [formula]

[2] = tested on: thymocytes of suprarenalectomized rats; test: Antiglucocorticoid activity: inhibition of the effect of dexamethasone on tritiated uridine incorporation in thymocytes; type: cell-based; conditions: Rattus norvegicus, Thymocyte, 5.10^-8 M dexamethasone, 37° C., 30 hours; for inhibition at 1 µM: product at 10^-6 M; for inhibition at 0.1 µM: product at 10^-7 M; for inhibition at 0.01 µM: product at 10^-8 M
Experimental: II. Antiglucocorticoid activity
The technique used derives from the method described by Dausse et Col. in "Molecular Pharmacology", 13, 948-953, (1977) ("the relationship between glucocorticoid structure and effects upon Thymocytes") for the thymocytes of mice.
The thymocytes of suprarenalectomized rats are incubated at 37° C. for 30 hours in a nutritive medium containing 5.10^-8 M of dexamethasone in the presence or not of a product being studied, at different concentrations. Tritiated uridine is added, and the incubation is continued for one hour. The incubates are cooled, and treated with a 5% solution of trichloroacetic acid, then filtered on Whatman GF/A paper, and washed three times with a 5% trichloroacetic acid solution. The radio-activity retained by the filter is determined.
The products of examples 1 to 4 oppose this effect.

[3] = target: T2, Glucocorticoid receptor of the rat thymus (Rattus norvegicus, UniProt P06536); test: Glucocorticoid receptor of the rat thymus, relative bonding affinity (RBA); type: binding, rat (Sprague-Dawley); conditions: for Relative bonding affinity (RBA), Glucocorticoid, 4 H: incubation 4 H at 0° C.; for Relative bonding affinity (RBA), Glucocorticoid, 4 H / Relative bonding affinity (RBA), Glucocorticoid, 24 H: versus cold dexamethasone, tritiated dexamethasone; for Relative bonding affinity (RBA), Glucocorticoid, 24 H: incubation 24 H at 0° C.
T2 construct: the thymus is removed and homogenized at 0° C. in a buffer; from tissue; host or cells: thymus of adrenalectomized male Sprague-Dawley rats, 105,000 g supernatant (cytosol)
T2 sequence (P06536 1-795): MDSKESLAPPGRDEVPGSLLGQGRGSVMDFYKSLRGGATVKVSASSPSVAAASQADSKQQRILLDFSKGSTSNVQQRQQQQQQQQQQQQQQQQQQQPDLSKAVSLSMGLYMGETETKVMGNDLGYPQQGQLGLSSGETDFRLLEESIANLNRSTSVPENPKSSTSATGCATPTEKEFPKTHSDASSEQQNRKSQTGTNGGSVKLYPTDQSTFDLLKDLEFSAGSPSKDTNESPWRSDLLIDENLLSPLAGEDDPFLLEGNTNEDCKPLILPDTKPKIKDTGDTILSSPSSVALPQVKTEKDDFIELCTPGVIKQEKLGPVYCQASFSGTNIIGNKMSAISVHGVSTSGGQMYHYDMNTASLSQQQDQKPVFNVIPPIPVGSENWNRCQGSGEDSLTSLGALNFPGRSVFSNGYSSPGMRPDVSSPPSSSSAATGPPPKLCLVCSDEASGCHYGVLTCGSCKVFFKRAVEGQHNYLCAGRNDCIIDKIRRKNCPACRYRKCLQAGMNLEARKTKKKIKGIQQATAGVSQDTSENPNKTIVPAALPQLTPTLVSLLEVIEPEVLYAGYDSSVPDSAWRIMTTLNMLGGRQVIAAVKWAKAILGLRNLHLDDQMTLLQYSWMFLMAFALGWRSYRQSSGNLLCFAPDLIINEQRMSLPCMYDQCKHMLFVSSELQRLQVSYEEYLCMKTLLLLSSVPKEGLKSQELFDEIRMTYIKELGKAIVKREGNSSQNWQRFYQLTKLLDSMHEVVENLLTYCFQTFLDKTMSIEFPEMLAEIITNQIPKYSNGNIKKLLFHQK
Experimental: Glucocorticoid receptor of the rat thymus
Male Sprague-Dawley EOPS rats, weighing 160 to 200 g are suprerenalectomized. 4 to 8 days after this ablation, the animals are killed, and the thymus is removed and homogenized at 0° C. in a buffer, Tris 10 mM, saccharose 0.25M, dithiothreitol 2 mM, HCl pH 7.4, using a Potter polytetrafluoroethylene-glass (1 g of tissue for 10 ml of TS). The homogenate is then ultra-centrifuged (105,000 g×90 min.) at 0° C. Aliquots of the supernatant so obtained are incubated at 0° C. for a time (t) with a constant concentration (T) of tritiated dexamethasone in the presence of increasing concentrations (0-2,500.10^-9 M) either of cold dexamethasone, or of the cold product under test. The concentration of bonded tritiated dexamethasone (B) is then measured in each incubate by the technique of adsorption on carbon dextran.
as §1, §2, §3, §4, §5

[4] = tested on: thymocytes of suprarenalectomized rats; conditions: general statement on glucocorticoids, in particular dexamethasone; cited from earlier work

Row | Relative bonding affinity (RBA), Progestogen, 2 H [1] | Relative bonding affinity (RBA), Progestogen, 24 H [1] | Relative bonding affinity (RBA), Glucocorticoid, 4 H [3] | Relative bonding affinity (RBA), Glucocorticoid, 24 H [3] | affinity for the progestogen receptor (in words) ([1]; conclusion from RBA) | affinity for the glucocorticoid receptor (in words) ([3]; conclusion from RBA) | Structure (SMILES) | inhibition at 1 µM [2] | inhibition at 0.1 µM [2] | inhibition at 0.01 µM [2] | incorporation of tritiated uridine (in words) [4]
1 | 62 | 307 | 118 | 48 |  |  | CN(C)c1ccc(C2CC3(C)C(CCC34CCCO4)C3CCC4=CC(=O)CCC4=C23)cc1 (stereo not shown) [Example 1] | 125% | 51% | 11% | 
2 | 23 | 222 | 142 | 96 |  |  | CN(C)c1ccc(C2CC3(C)C(CCC34C=CCO4)C3CCC4=CC(=O)CCC4=C23)cc1 (stereo not drawn) [Example 2, (17 R) 11-beta-[4-(dimethylamino)phenyl]-spiro (estra-4,9-dien-17,27-(5H)-furan)-3-one] | 32% | 18% | 0% | 
3 | 35 | 242 | 56 | 41 |  |  | CSc1ccc(C2CC3(C)C(CCC34C=CCO4)C3CCC4=CC(=O)CCC4=C23)cc1 [Example 3, (17R) 11-beta-[4-(methylthio)phenyl]-spiro(estra-4,9-dien-17,2'-(5H)-furan)-3-one] | 84% | 12% | 0% | 
4 | 78 | 388 | 69 | 39 | very marked affinity | very marked affinity | CSc1ccc(C2CC3(C)C(CCC34CCCO4)C3CCC4=CC(=O)CCC4=C23)cc1 [Example 4, (17R) 4',5'-dihydro-11-beta-[4-(methylthio)phenyl]-spiro(estra-4,9-dien-17,2'-(3H)-furan)-3-one] | 80% | 21% | 0% | 
5 |  |  |  |  |  |  | C[C@@H]1C[C@H]2[C@@H]3CCC4=CC(=O)C=C[C@]4(C)[C@@]3(F)[C@@H](O)C[C@]2(C)[C@@]1(O)C(=O)CO [dexamethasone] |  |  |  | reduction in the incorporation of tritiated uridine
